# Patent US6436649B1, “Method for detecting and/or quantifying a hapten in a homogeneous phase and device for implementation thereof” (priority 1996, dated 2002)
# Like-named read-outs stand apart in the source and are kept apart here.
# How the values were obtained:
# [1] = target: E. Coli β-lactamase (Escherichia coli, UniProt P00811); details: enzyme E. Coli; cited from earlier work
# [2] = target: P99/Q908R β-lactamases (Enterobacter cloacae, UniProt P05364); details: cited from earlier work
# [3] = target: Citro.F. β-lactamase (Citrobacter freundii, UniProt P05193); details: enzyme Citro.F.; cited from earlier work
# Citro.F. β-lactamase, sequence (P05193 21-381): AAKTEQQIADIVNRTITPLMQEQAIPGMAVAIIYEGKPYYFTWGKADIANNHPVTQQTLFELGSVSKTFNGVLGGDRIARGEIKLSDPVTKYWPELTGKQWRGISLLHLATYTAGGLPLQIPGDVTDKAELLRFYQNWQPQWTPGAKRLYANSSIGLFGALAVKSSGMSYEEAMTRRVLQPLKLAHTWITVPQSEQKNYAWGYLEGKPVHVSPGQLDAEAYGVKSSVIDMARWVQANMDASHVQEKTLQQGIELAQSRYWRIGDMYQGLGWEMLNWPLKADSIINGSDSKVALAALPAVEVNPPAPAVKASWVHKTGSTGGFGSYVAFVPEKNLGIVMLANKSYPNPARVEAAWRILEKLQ
# [4] = target: T1, β-lactamase from P99 (Enterobacter cloacae, UniProt P05364); assay: Inhibitory activity in the presence of anti-nandrolone antibodies; assay type: biochemical; details: P99, [S] 60, [E] 0.25, [I] 0.2 μM
# T1 construct: host or cells: Enterobacter cloacae P99 (strain of origin as printed)
# Text: (§1) The objective of these measurements, by way of example, is the evaluation of the restoration of the predominant part of the enzymatic activity in the presence of a precise quantity of inhibitor.
# [5] = target: T2, β-lactamase from E. Coli (Escherichia coli, UniProt P00811); assay: as above; assay type: biochemical; details: for V1: without antibodies
# T2 sequence (P00811 20-377): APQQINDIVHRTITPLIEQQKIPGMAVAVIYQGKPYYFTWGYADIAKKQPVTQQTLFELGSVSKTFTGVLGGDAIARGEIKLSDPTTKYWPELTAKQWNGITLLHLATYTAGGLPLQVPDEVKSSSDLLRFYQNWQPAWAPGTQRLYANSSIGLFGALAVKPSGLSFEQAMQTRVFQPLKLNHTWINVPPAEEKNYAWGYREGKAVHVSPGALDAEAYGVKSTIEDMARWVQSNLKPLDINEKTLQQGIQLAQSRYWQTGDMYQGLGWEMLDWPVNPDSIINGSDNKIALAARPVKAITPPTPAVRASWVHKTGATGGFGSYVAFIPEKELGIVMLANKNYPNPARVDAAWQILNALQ
# Text: as §1
# [6] = target: T2, β-lactamase from E. Coli; assay: Inhibitory activity (Ki) on nitrocefin hydrolysis by β-lactamase; assay type: biochemical
# Text: (§2) The choice of the inhibitor depends on the kinetic parameters and on the possibilities of coupling with the hapten to be assayed (presence of functional groups which are not essential for the inhibitory activity). At the enzymatic level, the ideal inhibitor should have a kcat which is as low as possible (very slow rate of degradation) while having a Km which is as low as possible (high affinity for the enzyme) . In the case of the inhibition reactions envisaged, the Km value is close to the constant Ki. The Km can therefore be estimated from an evaluation of the Ki. This is obtained from kinetic measurements carried out in the presence of a reporter substrate with known characteristics, and this in the presence of a variable quantity of inhibitor. The ideal inhibitor should also have a rate constant k+1 (corresponding to the step of binding of the inhibitor to the enzyme) which is as high as possible. Based on this principle, it has been possible to select five inhibitors. They are:
# (§3) The measurements were carried out on β-lactamases from different bacterial strains: Enterobacter cloacae P99, Escherichia coli and Citrobacter freundii, symbolized by: P99, E. Coli and C. Freundii.
# (§4) The measurements are divided into four parts. […] The second is an evaluation of the inhibitory activity of the inhibitors (Table 9). The third groups together the measurements of enzymatic activity in order to determine the quantity of antibody to be used in the assay. The fourth part comprises the assay of the haptens.
# (§5) By way of example, the results of a selective study carried out on this compound are provided. The results presented in Table 9 give the values obtained according to a similar method. […] These measurements determine the concentrations of inhibitor (I) to be used during the assay.
# [7] = target: β-lactamase from C. Freundii (Citrobacter freundii, UniProt P05193); assay: as above; assay type: biochemical
# β-lactamase from C. Freundii, sequence (P05193 21-381): as the sequence (P05193 21-381) above
# Text: as §2, §3, §4, §5
# [8] = target: T3, β-lactamase from Enterobacter cloacae P99 (Enterobacter cloacae, UniProt P05364); assay: as above; assay type: biochemical
# T3 construct: host or cells: Enterobacter cloacae P99 (strain of origin as printed)
# Text: as §2, §3, §4, §5
# [9] = system: T4, type C β-lactamases; details: selected inhibitors, over the β-lactamases; cited from earlier work
# T4 construct: rows headed: Km; kcat
# [10] = target: T5, type C β-lactamases (Enterobacter cloacae, UniProt P05364); details: Ki of the parent inhibitor; cited from earlier work
# T5 construct: Ki
# [11] = system: P99/Q908E/E. Coli β-lactamases; details: enzymes P99/Q908E/E. Coli; cited from earlier work
# [12] = E. Coli [E] 1 nM, [S] nitrocefin 150 μM, [I] 0.2 μM
# [13] = E. Coli [E] 1 nM, [S] nitrocefin 150 μM, [I] 0.4 μM
# [14] = C. Freundii [E] 0.375 nM, [S] nitrocefin 60 μM, [I] 0.1 μM
# [15] = C. Freundii [E] 0.375 nM, [S] nitrocefin 60 μM, [I] 0.2 μM
# [16] = P99 [E] 0.0625 nM, [S] nitrocefin 50 μM, [I] 0.1 μM
# [17] = P99 [E] 0.0625 nM, [S] nitrocefin 50 μM, [I] 0.3 μM
# [18] = P99 [E] 0.0625 nM, [S] nitrocefin 50 μM, [I] 0.4 μM
# [19] = P99 [E] 0.0625 nM, [S] nitrocefin 50 μM, [I] 0.5 μM
# [20] = P99 [E] […], [S] nitrocefin 60 μM, [I] 0.2 μM
# [21] = P99 [E] […], [S] nitrocefin 60 μM, [I] 0.24 μM
# E. Coli β-lactamase, sequence (P00811 20-377): as the sequence (P00811 20-377) above
smiles,measurement,setting,value
O=C(Cc1cccs1)N[C@@H]1C(=O)N2C(C(=O)[O-])=C(C[n+]3ccccc3)CS[C@H]12 [Cephaloridine],Km,[1],170 µM
same,kcat,[1],130 S^−1
same,Km,[2]; enzyme P99/Q908R,70 µM
same,kcat,[2]; enzyme P99/Q908R,650 S^−1
same,Km,[3],35 µM
same,kcat,[3],700 S^−1
CC(=O)OCC1=C(C(=O)O)N2C(=O)[C@@H](NC(=O)CCC[C@@H](N)C(=O)O)[C@H]2SC1 [Cephalosporin C],kcat,[2]; enzyme P99/Q908R,1100 S^−1
same,Km,"[2]; enzyme P99/Q908R, read-out: Km",400 µM
CC(=O)OCC1=C(C(=O)O)N2C(=O)[C@@H](NC(=O)Cc3cccs3)[C@H]2SC1 [Cephalothin],Km,[1],42 µM
same,kcat,[1],300 S^−1
same,Km,[2]; enzyme P99/Q908R,15 µM
same,kcat,[2]; enzyme P99/Q908R,200 S^−1
"CC1(C)S[C@@H]2[C@H](NC(=O)C(C(=O)O[C@H]3CC[C@H]4[C@@H]5CCC6=CC(=O)CC[C@@H]6[C@H]5CC[C@]34C)c3ccccc3)C(=O)N2[C@H]1C(=O)O (stereo partly shown) [Conjugate 1, nandrolone carbenicillinate]",Vab,[4]; anti-nandrolone serum dil. 500 x,200 nM/s
same,Vab,[4]; anti-nandrolone serum dil. 625 x,200 nM/s
same,Vab,[4]; anti-nandrolone serum dil. 770 x,189 nM/s
same,Vab,[4]; anti-nandrolone serum dil. 1000 x,170 nM/s
same,V1,[4]; without antibodies,131 nM/S
same,Vab,"[5]; [S] 150, [E] 1, [I] 0.24 μM, anti-nandrolone serum dil. 625 x",307 nM/s
same,Vab,"[5]; [S] 150, [E] 1, [I] 0.24 μM, anti-nandrolone serum dil. 714 x",299 nM/s
same,V1,"[5]; [S] 150, [E] 1, [I] 0.24 μM",210 nM/S
same,Vab,"[5]; [S] 150, [E] 1, [I] 1 μM, anti-nandrolone serum dil. 100 x",211 nM/s
same,Vab,"[5]; [S] 150, [E] 1, [I] 1 μM, anti-nandrolone serum dil. 125 x",210 nM/s
same,Vab,"[5]; [S] 150, [E] 1, [I] 1 μM, anti-nandrolone serum dil. 140 x",200 nM/s
same,Vab,"[5]; [S] 150, [E] 1, [I] 1 μM, anti-nandrolone serum dil. 200 x",174 nM/s
same,Vab,"[5]; [S] 150, [E] 1, [I] 1 μM, anti-nandrolone serum dil. 500 x",123 nM/s
same,V1,"[5]; [S] 150, [E] 1, [I] 1 μM",90 nM/S
same,V0/V1 1,[6]; [12],0.19
same,V1,[6]; [12],260 nM/s
same,V0/V1 1,[6]; [13],0.41
same,V1,[6]; [13],220 nM/s
same,Ki,[6]; [12],800 nM
same,Ki,[6]; [13],760 nM
same,Ki,"[6]; E. Coli, summary value of the two determinations",780 nM
same,V0/V1 1,[7]; [14],0.15
same,V1,[7]; [14],209 nM/s
same,V0/V1 1,[7]; [15],0.47
same,V1,[7]; [15],163 nM/s
same,Ki,[7]; [14],80 nM
same,Ki,[7]; [15],62 nM
same,Ki,"[7]; C. Freundii, summary value of the two determinations",71 nM
same,Ki,"[8]; P99, summary value of the six determinations",74 nM
same,Ki,[8]; [16],76 nM
same,Ki,[8]; [17],62 nM
same,Ki,[8]; [18],65 nM
same,Ki,[8]; [19],74 nM
same,Ki,[8]; [20],88 nM
same,Ki,[8]; [21],78 nM
same,Ki,[8]; enzyme from P99,70 nM
same,V0/V1 1,[8]; [16],0.44
same,V1,[8]; [16],36 nM/s
same,V0/V1 1,[8]; [17],1.6
same,V1,[8]; [17],20 nM/s
same,V0/V1 1,[8]; [18],2.06
same,V1,[8]; [18],17 nM/s
same,V0/V1 1,[8]; [19],2.25
same,V1,[8]; [19],16 nM/s
same,V0/V1 1,[8]; [20],0.66
same,V1,[8]; [20],131 nM/s
same,V0/V1 1,[8]; [21],0.88
same,V1,[8]; [21],116 nM/s
COc1cccc(OC)c1C(=O)N[C@@H]1C(=O)N2[C@@H]1SC(C)(C)[C@@H]2C(=O)O [Methicillin],Km,[1],0.15 µM
same,kcat,[1],0.08 S^−1
same,Km,[2]; enzyme P99/Q908R,0.03 µM
same,kcat,[2]; enzyme P99/Q908R,0.007 S^−1
same,Km,[3],0.002 µM
same,kcat,[3],0.01 S^−1
O=C(Cc1cccs1)N[C@@H]1C(=O)N2C(C(=O)O)=C(/C=C/c3ccc([N+](=O)[O-])cc3[N+](=O)[O-])CS[C@H]12 [Nitrocephin],Km,[1],500 µM
same,kcat,[1],500 S^−1
same,kcat,"[2]; P99 enzyme, nitrocefin as reporter substrate",780 s⁻¹
same,kcat,[2]; enzyme P99/Q908R,780 S^−1
same,Km,"[2]; enzyme P99/Q908R, read-out: Km",25 µM
same,Km,[3],12 µM
same,kcat,[3],300 S^−1
Cc1onc(-c2ccccc2)c1C(=O)N[C@@H]1C(=O)N2[C@@H]1SC(C)(C)[C@@H]2C(=O)O [Oxacillin],kcat,[9],0.005 s⁻¹
same,Ki,[10],0.5 nM
same,Km,[11],0.0005 µM
same,kcat,[11],0.005 S^−1
CC1(C)S[C@@H]2[C@H](NC(=O)[C@H](C(=O)O)c3ccsc3)C(=O)N2[C@H]1C(=O)O [Ticarcillin],Km,[11],0.25 µM
same,kcat,[11],0.045 S^−1
